Test results from PubChem BioAssay (NCI).
Values joined by “and” are separate entries in the source; they are usually repeats but may differ in a detail not shown here. Equal entries are not always repeated.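 How tested: cells in 96-well plates exposed to compound for 48 hours at five concentrations. At the GI50, growth is halved. TGI denotes the concentration required for complete inhibition of growth.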

Tests used:
Assay in all cases: NCI tumour cell line growth inhibition, 48 h
TK-10 renal = tested on: TK-10 renal
OVCAR-3 ovarian = tested on: OVCAR-3 ovarian
SF-295 CNS = tested on: SF-295 CNS
T-47D breast = tested on: T-47D breast
HCT-116 colon = tested on: HCT-116 colon
ACHN renal = tested on: ACHN renal
K-562 leukemia = tested on: K-562 leukemia
SNB-19 CNS = tested on: SNB-19 CNS
MALME-3M melanoma = tested on: MALME-3M melanoma
MOLT-4 leukemia = tested on: MOLT-4 leukemia

Compound	GI50 (TK-10 renal)	TGI (TK-10 renal)	GI50 (OVCAR-3 ovarian)	TGI (OVCAR-3 ovarian)	GI50 (SF-295 CNS)	TGI (SF-295 CNS)	GI50 (T-47D breast)	TGI (T-47D breast)	GI50 (HCT-116 colon)	TGI (HCT-116 colon)	GI50 (ACHN renal)	TGI (ACHN renal)	GI50 (K-562 leukemia)	TGI (K-562 leukemia)	GI50 (SNB-19 CNS)	TGI (SNB-19 CNS)	GI50 (MALME-3M melanoma)	TGI (MALME-3M melanoma)	GI50 (MOLT-4 leukemia)	TGI (MOLT-4 leukemia)
O=[N+]([O-])c1cc2c(ccc3occc32)o1	5.46 µM	31.5 µM	3.77 µM	15.8 µM	2.04 µM	5.75 µM	41.3 µM	> 100 µM	1.34 µM	5.73 µM	0.561 µM	8.03 µM	2.14 µM	8.03 µM	3.78 µM	45.9 µM	1.54 µM	3.11 µM	2.31 µM	28.6 µM
NS(=O)(=O)c1ccc(N2N=C(c3cccs3)CC2c2ccccc2O)cc1 (stereo unspecified)	1.09 µM	5.47 µM	0.933 µM	2.64 µM	0.829 µM	2.26 µM	2.24 µM	18.8 µM	1.15 µM	3.96 µM	2.9 µM	13 µM	1.24 µM	15.3 µM	1.23 µM	11 µM	4.81 µM	13.5 µM	1.27 µM	16.9 µM
Cn1ncnc1C1c2n[nH]c(=O)c3cc(F)cc(c23)NC1c1ccc(F)cc1 (stereo unspecified)	> 34.2 µM	> 100 µM	> 100 µM	> 100 µM	1.01 µM	> 100 µM	> 100 µM	> 100 µM	25.8 µM	> 100 µM	29.4 µM	> 100 µM	> 100 µM	> 100 µM	11.2 µM	> 100 µM	> 100 µM	> 100 µM	3.25 µM	> 100 µM
COc1cc2nncc(SCc3ccc(Cl)c(Cl)c3)c2cc1OC		> 100 µM		> 100 µM		> 100 µM		> 100 µM		> 100 µM		> 100 µM		> 100 µM		> 100 µM		> 100 µM		> 100 µM
Nc1cc(-c2ccccc2)n(C(=O)Nc2ccc(Oc3ccccc3)cc2)n1	69.7 µM	> 100 µM	31.3 µM	> 100 µM	40.2 µM	> 100 µM	86.2 µM	> 100 µM	53.5 µM	> 100 µM	34.9 µM	> 100 µM	> 100 µM	> 100 µM	91.5 µM	> 100 µM	> 100 µM	> 100 µM	50.5 µM	> 100 µM
COc1cc(-c2oc3c(OC)c(O)cc(O)c3c(=O)c2OC)ccc1O		69.6 µM		22.3 µM		76.2 µM		18.2 µM		> 100 µM		> 71.5 µM		> 100 µM		> 100 µM		97.5 µM		29.4 µM
Cc1ccc([N+](=O)[O-])c2c(NCCC[N+](C)(C)[O-])ccnc12		> 100 µM		> 100 µM		> 100 µM		> 100 µM		> 100 µM		> 100 µM		> 100 µM		> 100 µM		> 100 µM		> 100 µM
CCCC(CCC)C(=O)OCC1(CO)C/C(=C\c2ccc(C(F)(F)F)cc2)C(=O)O1 (stereo unspecified)	5.62 µM	20.3 µM	19.8 µM	36.1 µM	2.44 µM	17.7 µM	14.7 µM	29.4 µM	12.6 µM	25.6 µM	10.5 µM	22.6 µM	0.823 µM	20.6 µM	16.8 µM	30.6 µM	16.4 µM	31.7 µM	14.3 µM	31.9 µM
Clc1ccc(/C=C/c2nc(Cl)c(-c3ccc(Cl)cc3)c(Cl)n2)cc1		> 100 µM		> 100 µM		> 100 µM		> 100 µM		> 100 µM		> 100 µM		> 100 µM		> 100 µM		> 100 µM		> 100 µM
Cc1c(C(N)=O)sc2c1c(=O)n(Cc1ccccc1)c1nnc(S(=O)(=O)CC(=O)Nc3ccc(Cl)cc3)n21	4.38 µM	19.2 µM	5.27 µM	18 µM	3.28 µM	26.2 µM	3.89 µM	14.3 µM	2.1 µM	5.22 µM	4.63 µM	20.6 µM	15 µM	55.2 µM	7.7 µM	23.3 µM	3.96 µM	17.5 µM	15.6 µM	46.8 µM
CN(CCCN(C)CCC1CCCCC1)CCC1CCCCC1	1.62 µM	3.55 µM	3.95 µM	15 µM	1.46 µM	3.02 µM	1.64 µM	4.15 µM	2.52 µM	7.45 µM	4 µM	14.9 µM	1.97 µM	7.02 µM	3.76 µM	9.98 µM	1.39 µM	3.03 µM	2.4 µM	7.3 µM
CC1=NN(C(=O)c2nn(-c3ccc(Cl)cc3)cc2O)C(=O)C1	0.578 µM	> 100 µM	1.34 µM	> 27.9 µM	0.285 µM		2.87 µM	> 100 µM	0.743 µM	> 100 µM	1.61 µM	> 100 µM	0.501 µM	> 100 µM	3.16 µM	> 100 µM	9.29 µM	99.5 µM	1.24 µM	> 100 µM
CCN(CC)CCC(=O)O[C@H]1CC[C@H](CC(C)[C@H]2CC(=O)C(C)C=C(C)[C@H](OC(=O)CCN(CC)CC)C(OC)C(=O)[C@@H](C)CC(C)/C=C/C=C/C=C(C)C(OC)CC3CC[C@H](C)[C@](O)(O3)C(=O)C(=O)N3CCCCC3C(=O)O2)CC1OC (stereo partly specified)	1.4 µM	6.12 µM and 4.25 µM	0.0165 µM and 0.00456 µM	2.27 µM and 2.19 µM	0.0016 µM	1.46 µM and 1.98 µM	0.0267 µM	4.12 µM	1.24 µM	2.57 µM and 2.54 µM		2.62 µM and 4.48 µM		5.2 µM and 3.65 µM	0.0358 µM	7.68 µM and 2.24 µM	0.0579 µM		0.0255 µM	5.39 µM and 1.32 µM
CN(C)c1ncnc2c1ccn2C1OC(CO)C(O)C1O (stereo unspecified)	1.83 µM	> 100 µM	0.938 µM	> 34.6 µM	6.48 µM	> 100 µM	0.0621 µM	1.61 µM	2.97 µM	> 100 µM	3.18 µM	> 100 µM	1.4 µM	> 100 µM	44.5 µM	> 100 µM	92.6 µM	> 100 µM	0.278 µM	1.95 µM
